Experimental data reported in US12397059B2, “Compounds and methods for the treatment and prevention of fibrotic disease states and cancer” (Purdue Research Foundation, priority 2019, dated 2025).

Tests used:
[1] = test system: THP-1 cells polarized to M2-like macrophages; test: Reprogramming of M2-like THP-1 macrophages, marker gene analysis by qPCR; assay type: cell-based, human
Experimental: THP-1 cells were seeded into 96-well plates at a density of 60,000 cells/well. Cells were differentiated into unpolarized macrophages by 48 hours incubation with 200 nM PMA followed by 24 hours incubation in fresh RPMI medium. […] Cultures were maintained at 37° C. in a humidified 5% CO2 incubator.
Total RNA was isolated from 1×10^5 —2×10^5 macrophages using a Quick-RNA™ MicroPrep kit (Zymo Research, Irvine, CA) according to the manufacturer-recommended protocol. […] IL-6, CXCL10, IFNα, IFN-γ and CD86 were used as markers for an M1 phenotype, while CCL18, CD206, CD163 and Arg1 were employed as markers for the M2 phenotype. IL-1β, PDGFβ, MMP9 and TIMP 3 were measured as indicators of a profibrotic phenotype. IRAK-4 was used as an indicator of TLR7 stimulation. To control for specificity of the amplification products, a melting curve analysis was performed. […] Each sample was analyzed independently in triplicate for each marker.
Primarily, human monocytic (THP-1) cells were induced to the M2-like phenotype using the methods and materials previously described. In particular, THP-1 cells were seeded into 96-well plates at a density of 60,000 cells/well. Cells were differentiated into unpolarized macrophages by 48 h incubation with 200 nM PMA followed by 24 hours incubation in fresh RPMI medium. The resulting macrophages were polarized to an M2-like phenotype by incubation with 20 ng/ml IL-4, 20 ng/ml IL-13, and 5 ng/mL IL-6 for 48 h. Cultures were maintained at 37° C. in a humidified 5% CO2 incubator.
In addition to the nonconjugated TLR7 agonist, conjugated compounds of the present disclosure were likewise evaluated. […] The cells were subsequently harvested for gene analysis by qPCR and the relative expression of CCL18 (FIG. 14A), CD206 (FIG. 14B), and IL-1β (FIG. 14C) analyzed.

healthy mice = test: Plasma cytokine levels in healthy mice after tail vein injection; assay type: in vivo
Experimental: (FIGS. 20A-C) Measurement of plasma IL-6 (FIG. 20A), IFNα (FIG. 20B) and TNFα (FIG. 20C) (n=3). (FIGS. 20D-F). The effect of drug concentration on plasma levels of IL-6 (FIG. 20D), IFNα (FIG. 20E), and TNFα (FIG. 20F) was determined at 1.5 h, 1 h, or 1 h after treatment, respectively (n=2) (FIG. 20G).

[2] = 2 hours with drug, then drug-free medium
[3] = incubated 2 hours, harvested at once or after a further 46 hours

CCCCc1nc2c(N)nc3ccccc3c2n1CC(C)(C)OC(=O)OCCSSCC(NC(=O)CCC(NC(=O)c1ccc(NCc2cnc3nc(N)[nH]c(=O)c3n2)cc1)C(=O)O)C(=O)O (centres unmarked) [Compound 1B]
TNFα induction [1, 2]: dramatically improved
potency relative to Compound 1A [1, 2]: superior potency relative to Compound 1A
marker changes (FIGS. 3A-3F) compared with nontargeted TLR7 agonist ([1]; M2-induced THP-1, 48 hours incubation): same qualitative changes were observed, only the magnitude of the impact of Compound 1B was somewhat reduced
PDGFα ([1]; data not shown): no significant difference
M1-like phenotype (CD86 mRNA, TNFα levels) [1, 3]: upregulated
profibrotic/M2-type markers (CCL18, CD206, IL-1β, PDGFβ mRNA) [1, 3]: downregulated profibrotic/M2-type markers of macrophages more than Compound 1A
systemic cytokine release (plasma IL-6, IFNα, TNFα) (healthy mice; 10 nmol tail vein): does not
inflammatory cytokine release, dose comparison (healthy mice; effect of drug concentration): stimulates less inflammatory cytokine release than half the dose of Compound 1A
